Measured values reported in US12653772B2, “Use of a rosebush extract as depigmenting active agent” (L'OREAL, priority 2020, dated 2026).

System: reconstructed pigmented Episkin model
Experiment: Depigmenting effect by topical application on the reconstructed pigmented Episkin model; melanin quantified by image analysis of Fontana-Masson stained sections
Type: cell-based
Conditions: DMSO control 569.02
Experimental: The results of the evaluation are compared to those of the solvent (DMSO) control and of a reference whitening active agent (Lucinol).
The histological quality of the epidermis after treatment was evaluated on the HES-stained histological section in order to determine the effect of the treatment on the epidermis.
The melanocyte physiology was also evaluated in order to detect melanocyte cytotoxicity.
The melanin present in the PRE is stained on the histological slide (Fontana-Masson staining) and then quantified by image analysis.
Each epidermis slide is digitized using Nanozoomer®.
For each epidermis, about 10˜15 images are extracted (white light, magnification ×20).
The area occupied by melanin is quantified using the Histolab® software.
Two parameters, namely graphic comparison (box-plot) and p value significance (Mann-Whitney U test), were applied to the interpretation of the statistical results.
Up to 6 repetitions were calculated for each treatment group.
The statistical significance between the test groups and the corresponding solvent controls was determined using the non-parametric Mann-Whitney U test (n=6).
The statistical significance is defined if the p value is less than 0.05. […]
The area occupied by melanin is quantified using the Histolab® software and is represented by the mean pixel number per image. […]

Compound: CCCCc1ccc(O)cc1O [Lucinol]
- Mean pixel number/image (area occupied by melanin) (300 μM): 394.69
- Mean pixel number/image (area occupied by melanin) (500 μM): 467.76
